From patent publication US20140116434A1, “Dry Powder Inhaler Compositions” (GLAXO GROUP LIMITED, priority 2011, published 2014)
Blank lines part the entries; values can stand above or below the molecule they belong to.

Key:
muscarinic receptor = muscarinic receptor antagonism, studies in animal models and in humans
human M3 receptor = human M3 receptor (Homo sapiens, UniProt P20309); assay: reversibility at the human M3 receptor in vitro; assay type: binding
pre-clinical models = assay: duration of action in vivo, administered directly to the lungs in pre-clinical models; set-up: species or system animals
[1] = test system: healthy volunteers and COPD patients; assay: clinical pharmacology studies, single inhaled doses, plethysmography (sGaw, Raw) and spirometry (FEV1); assay type: in vivo, human
Description: Several clinical pharmacology studies have been conducted using 4-[hydroxy(diphenyl)methyl]-1-{2-[(phenylmethyl)oxy]ethyl}-1-azoniabicyclo[2.2.2]octane bromide in both healthy volunteers and COPD patients to investigate the safety, tolerability, pharmacokinetics and pharmacodynamics of this compound. The bronchodilatory effects and duration of action of single inhaled doses of this compound as measured by plethysmography (sGaw, Raw) and spirometry (FEV1) were assessed in some of the above noted studies.

subjects with COPD [2] = assay: 14-day once-daily study in subjects with COPD; assay type: in vivo, human; details: 14-day treatment period
Source text: In addition, this study confirmed that 4-[hydroxy(diphenyl)methyl]-1-{2-[(phenylmethyl)oxy]ethyl}-1-azoniabicyclo[2.2.2]octane bromide has a once-daily profile.

subjects with COPD [3] = assay: 28 day once-daily dry powder inhaler study in subjects with COPD; assay type: in vivo, human; details: 125, 250 and 500 mcg once-daily, 28 day period
Source text: A further study evaluated the efficacy and safety of three doses (125 mcg, 250 mcg and 500 mcg) of 4-[hydroxy(diphenyl)methyl]-1-{2-[(phenylmethyl)oxy]ethyl}-1-azoniabicyclo[2.2.2]octane bromide administered once-daily via a dry powder inhaler over a 28 day period in subjects with COPD.

[4] = test system: healthy Japanese volunteers; assay: single inhaled dose four-way crossover study, monotherapies and combination; assay type: in vivo, human; details: single inhaled doses, 500 mcg and/or 50 mcg
Source text: A combination of 4-[hydroxy(diphenyl)methyl]-1-{2-[(phenylmethyl)oxy]ethyl}-1-azoniabicyclo[2.2.2]octane bromide and the compound of formula (II) as the triphenylacetate salt has been administered to sixteen healthy Japanese volunteers, aged 20 to 65, as part of a clinical trial to assess the safety, tolerability, pharmacokinetics and pharmacodynamics of single inhaled doses of 4-[hydroxy(diphenyl)methyl]-1-{2-[(phenylmethyl)oxy]ethyl}-1-azoniabicyclo[2.2.2]octane bromide and the compound of formula (II) triphenylacetate as monotherapies and in combination. […]
This clinical study in healthy Japanese volunteers, evaluated the effect of 4-[hydroxy(diphenyl)methyl]-1-{2-[(phenylmethyl)oxy]ethyl}-1-azoniabicyclo[2.2.2]octane bromide (500 mcg dose) and the compound of formula (II) triphenylacetate (50 mcg dose) administered as single inhaled doses and concurrently (4-[hydroxy(diphenyl)methyl]-1-{2-[(phenylmethyl)oxy]ethyl}-1-azoniabicyclo[2.2.2]octane bromide (500 mcg dose) and the compound of formula (II) triphenylacetate (50 mcg dose)) on lung function parameters. […] In this study FEV1 values were recorded. […]

[5] = assay type: in vivo, animal and human
asthmatic patients = assay: clinical pharmacology studies of the compound of formula (II) in asthmatic patients; assay type: in vivo, human; details: all doses tested
Source text: The compound of formula (II) as the α-phenylcinnamate salt and the triphenylacetate salt has been studied in a number of clinical pharmacology studies, including single- and repeat-dose studies. In addition, these studies have evaluated the compound of formula (II) formulated with lactose and either cellobiose octaacetate or magnesium stearate.

[6] = test system: subjects with persistent uncontrolled asthma; assay: 8 week randomised, double-blind, placebo-controlled study in persistent uncontrolled asthma; assay type: in vivo, human
Description: In one such study, the safety and efficacy of four doses of 6α,9α-difluoro-17α-[(2-furanylcarbonyl)oxy]-11β-hydroxy-16α-methyl-3-oxo-androsta-1,4-diene-17β-carbothioic acid S-fluoromethyl ester (fluticasone furoate) in subjects with persistent uncontrolled asthma were evaluated. In this study, which was a randomised, double-blind, placebo-controlled, parallel group study, 598 patients received one of six treatments: fluticasone furoate (25, 50, 100 or 200 mcg) once daily, fluticasone propionate 100 mcg twice daily or placebo for 8 weeks. The primary endpoint was change from baseline in trough (pre-dose) forced expiratory volume in 1 second (FEV1) at Week 8. […] This study supports the use of fluticasone furoate (100 or 200 mcg once-daily) for the treatment of persistant uncontrolled asthma.

Chain of human M3 receptor (P20309 whole entry): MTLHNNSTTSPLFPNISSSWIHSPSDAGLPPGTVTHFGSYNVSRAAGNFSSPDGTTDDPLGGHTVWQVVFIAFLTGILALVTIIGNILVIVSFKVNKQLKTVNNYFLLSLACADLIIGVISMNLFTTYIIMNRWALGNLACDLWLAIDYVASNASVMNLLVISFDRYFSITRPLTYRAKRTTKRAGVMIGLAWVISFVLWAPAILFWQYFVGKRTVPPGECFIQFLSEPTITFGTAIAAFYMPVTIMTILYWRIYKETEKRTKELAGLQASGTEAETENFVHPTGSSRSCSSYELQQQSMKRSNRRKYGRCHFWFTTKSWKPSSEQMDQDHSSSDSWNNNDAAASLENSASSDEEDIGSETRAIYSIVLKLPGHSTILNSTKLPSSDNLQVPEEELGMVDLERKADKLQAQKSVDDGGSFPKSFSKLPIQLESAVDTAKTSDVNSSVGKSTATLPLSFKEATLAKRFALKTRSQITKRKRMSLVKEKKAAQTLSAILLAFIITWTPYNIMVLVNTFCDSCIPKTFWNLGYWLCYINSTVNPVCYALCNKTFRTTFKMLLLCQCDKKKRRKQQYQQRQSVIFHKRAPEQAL

reversibility at the human M3 receptor (human M3 receptor): slow reversibility
SMILES: OC(c1ccccc1)(c1ccccc1)C12CC[N+](CCOCc3ccccc3)(CC1)CC2.[Br-] [4-[hydroxy(diphenyl)methyl]-1-{2-[(phenylmethyl)oxy]ethyl}-1-azoniabicyclo[2.2.2]octane bromide]
muscarinic receptor antagonist profile (muscarinic receptor): long acting high-affinity pan-active muscarinic receptor antagonist | duration of action in vivo (pre-clinical models): long duration of action | bronchodilatory effects (sGaw, Raw, FEV1) [1]: clinically relevant bronchodilation | duration of action [1]: 24 h | pulmonary function compared to placebo (subjects with COPD [2]; 62.5, 125, 250, 500 and 1000 mcg once-daily): statistically significant improvements | trough FEV1 compared with open label tiotropium active control (18 mcg once-daily) (subjects with COPD [2]; all once-daily doses): numerically greater improvement | bronchodilation (subjects with COPD [3]): significant bronchodilation over twenty four hours | safety (subjects with COPD [3]): safe | tolerability ([4]; dry powder inhalers): well tolerated | FEV1 values compared with placebo [4]: higher

SMILES: OCc1cc([C@@H](O)CNCCCCCCOCCOCc2c(Cl)cccc2Cl)ccc1O [compound of formula (II), 4-{(1R)-2-[(6-{2-[(2,6-dichlorobenzyl)oxy]ethoxy}hexyl)amino]-1-hydroxyethyl}-2-(hydroxymethyl)phenol]
bronchodilation ([5]; animal and human studies): sustained bronchodilation over a 24 hour period | safety profile ([5]; in vivo): favourable safety profile | trough (24-hour) FEV1 compared to placebo (asthmatic patients): statistically and clinically significant improvement

SMILES: C[C@@H]1C[C@H]2[C@@H]3C[C@H](F)C4=CC(=O)C=C[C@]4(C)[C@@]3(F)[C@@H](O)C[C@]2(C)[C@@]1(OC(=O)c1ccco1)C(=O)SCF [fluticasone furoate, 6α,9α-difluoro-17α-[(2-furanylcarbonyl)oxy]-11β-hydroxy-16α-methyl-3-oxo-androsta-1,4-diene-17β-carbothioic acid S-fluoromethyl ester]
change from baseline in trough FEV1 relative to placebo ([6]; 50-200 mcg once daily, Week 8, p<0.05): significantly greater increases | increase in trough FEV1 from baseline relative to placebo ([6]; 100 mcg and 200 mcg once daily, Week 8): > 200 mL
